From patent US20070071782A1, “2-Cyanobenzenesulfonamides for combating animal pests” (priority 2003, published 2007)

How the values were obtained:
Format in all cases: in vivo
[1] = system: Green Peach Aphid (Myzus persicae); assay: Green Peach Aphid leaf-dip test on pepper plants; settings: foliar, 120 h, after 5 days, read-out: mortality in comparison with untreated controls
Procedure: (§1) The active compounds were formulated in 50:50 acetone:water and 100 ppm Kinetic® surfactant.
Pepper plants in the 2nd leaf-pair stage (variety ‘California Wonder’) were infested with approximately 40 laboratory-reared aphids by placing infested leaf sections on top of the test plants. The leaf sections were removed after 24 hr. The leaves of the intact plants were dipped into gradient solutions of the test compound and allowed to dry. Test plants were maintained under fluorescent light (24 hour photoperiod) at about 25° C. and 20-40% relative humidity. Aphid mortality on the treated plants, relative to mortality on check plants, was determined after 5 days.

[2] = system: Argentine ants, Linepithema humile; assay: whole plant or invertebrate; settings: for mortality at 1 % strength: Linepithema humile, 144 h, read-out: Mean cumulative % mortality 6 days after treatment
Procedure: • a) The tests were conducted in petri dishes. Ants were given a water source and then were starved of a food source for 24 hours. Baits were prepared with 20% honey/water solution. A solution of the active ingredient in acetone was added to reach a concentration of the active ingredient of 1% by weight (w/w). 0.2 ml of the active ingredient containing honey/water solution, placed in a cap, was added to each dish. The dishes were covered and maintained at a water temperature of 22° C. […]
b) The tests were conducted as in example a). The following compounds I and II according to EP 33984 were used as comparative examples.

[3] = system: Cotton Aphid (Aphis gossypii); assay: Cotton Aphid cotyledon-dip test on cotton plants; settings: 120 h, after 5 days, read-out: mortality in comparison with untreated controls
From the text: as §1
Cotton plants in the cotyledon stage (variety ‘Delta Pine’, one plant per pot) were infested by placing a heavily infested leaf from the main colony on top of each cotyledons. The aphids were allowed to transfer to the host plant overnight, and the leaf used to transfer the aphids were removed. The cotyledons were dipped in the test solution and allowed to dry. After 5 days, mortality counts were made.

| Compound | mortality at 300 ppm [1] | mortality compared to untreated controls ([2]; in vivo) | further results |
| --- | --- | --- | --- |
| CCCNS(=O)(=O)c1cccc(C)c1C#N [Compound 1, n-Propyl-(2-cyano-3-methyl-phenyl)sulfonamide] | > 85% | – | – |
| CCN(CC)S(=O)(=O)c1cccc(Cl)c1C#N [Comparative Example I, reference compound] | – | – | mortality at 1 % strength [2]: 35.6% |
| CCNS(=O)(=O)c1cccc(OC(F)F)c1C#N [Compound 66] | – | 100% | Mean cumulative % mortality 6 days after treatment ([2]; in vivo): 100.0% |
| CCNS(=O)(=O)c1ccc(Cl)c(C)c1C#N [Compound 3, Ethyl-(4-chloro-2-cyano-3-methyl-phenyl)sulfonamide] | > 85% | – | mortality at 300 ppm [3]: > 85% |
| CCNS(=O)(=O)c1cccc(Cl)c1C#N [Comparative Example II, reference compound] | – | – | mortality at 1 % strength [2]: 35.6% |
| C#CCNS(=O)(=O)c1cccc(OC(F)F)c1C#N [Compound 79] | – | 100% | – |
| N#Cc1c(OC(F)F)cccc1S(N)(=O)=O [Compound 78] | – | 100% | – |
| CNS(=O)(=O)c1cccc(OC)c1C#N [Compound 2, Methyl-(2-cyano-3-methoxy-phenyl)sulfonamide] | > 85% | – | mortality at 300 ppm [3]: > 85% |
